How the values were obtained:
lipoamide = compound: NC(=O)CCCCC1CCSS1 [lipoamide]; assay: thermal stability z-score vs DMSO; higher = more thermally stabilized by treatment; conditions: HeLa, lipoamide concentration 100 µM
Experimental: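 Cellular thermal proteome profiling in HeLa cells. Cells were treated with 100 µM lipoamide for 1 h, with or without 1 mM arsenate for a further 1 h, then heated to ten temperatures (37-66.3 °C), and soluble protein was quantified by TMT mass spectrometry relative to 0.1% DMSO controls. The thermal stability score (sum of log2 fold changes minus the abundance score) was transformed to a z-score; mean of n = 3 experiments.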

potassium arsenate = compound: O=[As]([O-])(O)O.[K+] [potassium arsenate]; assay: as above; conditions: HeLa; arsenate concentration 1 mM
Experimental: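 Cellular thermal proteome profiling in HeLa cells treated with 1 mM arsenate for 1 h (DMSO pretreatment), heated to ten temperatures (37-66.3 °C). Soluble protein was quantified by TMT mass spectrometry relative to DMSO controls; the thermal stability score was transformed to a z-score; mean of n = 3 experiments.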

[1] = arsenate co-treatment: 1 mM arsenate 1 h
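Further: each temperature applied for 3 min, abundance score taken as mean log2 fold change at the two lowest temperatures, z-score obtained by mean subtraction and division by SD.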

Chain of UniProt Q8IVL1 (Q8IVL1 whole entry): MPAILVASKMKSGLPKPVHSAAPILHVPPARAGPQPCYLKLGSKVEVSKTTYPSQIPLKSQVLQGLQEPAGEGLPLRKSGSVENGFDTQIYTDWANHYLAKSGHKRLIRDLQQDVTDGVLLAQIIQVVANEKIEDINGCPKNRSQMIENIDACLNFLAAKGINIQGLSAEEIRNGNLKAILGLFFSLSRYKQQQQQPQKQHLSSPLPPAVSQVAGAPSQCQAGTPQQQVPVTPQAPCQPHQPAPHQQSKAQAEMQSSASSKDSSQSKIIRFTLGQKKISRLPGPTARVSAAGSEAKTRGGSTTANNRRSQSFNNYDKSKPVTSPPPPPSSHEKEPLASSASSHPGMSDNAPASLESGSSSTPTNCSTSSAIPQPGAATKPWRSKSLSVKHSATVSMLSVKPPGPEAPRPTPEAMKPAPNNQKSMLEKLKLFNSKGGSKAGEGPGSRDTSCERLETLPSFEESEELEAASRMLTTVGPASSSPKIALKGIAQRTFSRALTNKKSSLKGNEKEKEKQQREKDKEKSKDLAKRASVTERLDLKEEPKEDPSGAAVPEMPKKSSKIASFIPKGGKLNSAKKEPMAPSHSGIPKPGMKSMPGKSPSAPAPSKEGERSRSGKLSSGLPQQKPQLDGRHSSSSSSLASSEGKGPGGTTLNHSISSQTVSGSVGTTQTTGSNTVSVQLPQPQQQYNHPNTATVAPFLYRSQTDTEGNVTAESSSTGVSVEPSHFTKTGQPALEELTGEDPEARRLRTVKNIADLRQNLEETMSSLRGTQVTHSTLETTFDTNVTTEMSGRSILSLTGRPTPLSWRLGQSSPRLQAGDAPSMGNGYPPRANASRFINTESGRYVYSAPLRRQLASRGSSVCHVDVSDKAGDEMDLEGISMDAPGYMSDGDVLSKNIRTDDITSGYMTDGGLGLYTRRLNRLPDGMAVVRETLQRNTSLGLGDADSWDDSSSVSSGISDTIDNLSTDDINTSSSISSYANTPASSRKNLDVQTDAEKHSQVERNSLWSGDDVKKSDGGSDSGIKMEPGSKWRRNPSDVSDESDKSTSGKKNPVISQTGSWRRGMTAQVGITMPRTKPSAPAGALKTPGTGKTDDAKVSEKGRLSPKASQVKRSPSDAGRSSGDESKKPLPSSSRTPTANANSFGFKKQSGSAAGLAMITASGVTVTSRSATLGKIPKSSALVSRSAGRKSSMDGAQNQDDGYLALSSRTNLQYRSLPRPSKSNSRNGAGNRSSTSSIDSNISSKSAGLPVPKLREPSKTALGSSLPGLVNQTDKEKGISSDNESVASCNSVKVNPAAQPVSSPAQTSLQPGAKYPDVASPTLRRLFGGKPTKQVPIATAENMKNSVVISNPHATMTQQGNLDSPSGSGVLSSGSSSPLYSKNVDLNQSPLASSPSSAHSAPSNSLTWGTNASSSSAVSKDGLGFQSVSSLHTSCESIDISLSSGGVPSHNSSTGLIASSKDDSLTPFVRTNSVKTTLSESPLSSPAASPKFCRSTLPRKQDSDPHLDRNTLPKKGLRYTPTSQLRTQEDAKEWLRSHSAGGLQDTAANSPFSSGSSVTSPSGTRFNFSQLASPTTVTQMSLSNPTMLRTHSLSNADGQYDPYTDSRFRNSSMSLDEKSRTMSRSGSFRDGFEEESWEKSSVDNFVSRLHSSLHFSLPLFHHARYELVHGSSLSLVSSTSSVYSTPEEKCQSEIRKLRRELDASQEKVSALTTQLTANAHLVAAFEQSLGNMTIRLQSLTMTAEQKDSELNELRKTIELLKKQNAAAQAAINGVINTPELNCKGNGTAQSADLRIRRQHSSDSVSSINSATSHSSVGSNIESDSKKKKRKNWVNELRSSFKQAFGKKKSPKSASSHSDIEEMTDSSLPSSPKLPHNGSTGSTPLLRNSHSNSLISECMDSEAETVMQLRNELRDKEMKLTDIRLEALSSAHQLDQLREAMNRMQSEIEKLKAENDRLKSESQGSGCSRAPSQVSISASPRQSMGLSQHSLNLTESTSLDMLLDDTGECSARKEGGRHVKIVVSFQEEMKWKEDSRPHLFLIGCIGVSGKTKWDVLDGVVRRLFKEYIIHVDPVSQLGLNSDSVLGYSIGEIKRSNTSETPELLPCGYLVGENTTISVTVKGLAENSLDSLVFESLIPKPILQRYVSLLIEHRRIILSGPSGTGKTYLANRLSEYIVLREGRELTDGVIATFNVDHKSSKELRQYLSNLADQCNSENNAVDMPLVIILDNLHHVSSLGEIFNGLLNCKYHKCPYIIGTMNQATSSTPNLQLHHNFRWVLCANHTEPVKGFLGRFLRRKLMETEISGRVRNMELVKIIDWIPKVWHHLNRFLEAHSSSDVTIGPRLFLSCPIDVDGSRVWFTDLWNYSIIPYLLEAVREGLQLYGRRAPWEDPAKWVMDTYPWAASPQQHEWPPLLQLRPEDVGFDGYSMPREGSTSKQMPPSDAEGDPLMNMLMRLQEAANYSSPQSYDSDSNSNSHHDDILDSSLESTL
Chain of UniProt Q9BSR8 (Q9BSR8 whole entry): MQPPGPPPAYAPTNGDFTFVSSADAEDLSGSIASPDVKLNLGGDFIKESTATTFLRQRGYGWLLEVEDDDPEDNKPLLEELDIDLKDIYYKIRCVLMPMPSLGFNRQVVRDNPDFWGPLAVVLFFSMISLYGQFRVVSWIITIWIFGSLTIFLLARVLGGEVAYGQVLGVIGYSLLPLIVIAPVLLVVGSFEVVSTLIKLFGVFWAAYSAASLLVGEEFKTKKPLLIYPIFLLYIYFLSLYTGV
Chain of UniProt Q330K2 (Q330K2 whole entry): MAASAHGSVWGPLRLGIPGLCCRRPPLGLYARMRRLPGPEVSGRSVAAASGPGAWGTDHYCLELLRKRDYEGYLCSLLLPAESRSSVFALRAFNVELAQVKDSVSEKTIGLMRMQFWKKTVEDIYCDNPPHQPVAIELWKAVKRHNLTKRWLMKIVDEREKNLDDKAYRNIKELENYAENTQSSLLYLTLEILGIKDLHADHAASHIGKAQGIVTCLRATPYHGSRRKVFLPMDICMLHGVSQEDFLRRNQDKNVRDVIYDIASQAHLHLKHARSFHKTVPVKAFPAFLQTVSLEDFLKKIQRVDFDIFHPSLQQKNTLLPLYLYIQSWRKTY
Chain of UniProt Q86UL3 (Q86UL3 whole entry): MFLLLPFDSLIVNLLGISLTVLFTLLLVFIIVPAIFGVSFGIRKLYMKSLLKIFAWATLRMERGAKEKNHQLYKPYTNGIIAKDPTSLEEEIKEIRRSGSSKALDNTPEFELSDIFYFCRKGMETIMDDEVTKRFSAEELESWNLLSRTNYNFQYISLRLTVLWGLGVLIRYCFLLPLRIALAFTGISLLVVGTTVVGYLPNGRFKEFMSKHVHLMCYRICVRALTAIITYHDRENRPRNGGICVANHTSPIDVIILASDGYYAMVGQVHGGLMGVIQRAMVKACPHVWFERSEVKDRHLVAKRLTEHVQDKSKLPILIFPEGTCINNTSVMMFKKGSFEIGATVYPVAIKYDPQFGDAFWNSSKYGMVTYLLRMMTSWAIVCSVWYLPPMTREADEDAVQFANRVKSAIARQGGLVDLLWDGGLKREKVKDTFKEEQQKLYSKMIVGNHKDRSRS
Chain of UniProt Q5UCC4 (Q5UCC4 whole entry): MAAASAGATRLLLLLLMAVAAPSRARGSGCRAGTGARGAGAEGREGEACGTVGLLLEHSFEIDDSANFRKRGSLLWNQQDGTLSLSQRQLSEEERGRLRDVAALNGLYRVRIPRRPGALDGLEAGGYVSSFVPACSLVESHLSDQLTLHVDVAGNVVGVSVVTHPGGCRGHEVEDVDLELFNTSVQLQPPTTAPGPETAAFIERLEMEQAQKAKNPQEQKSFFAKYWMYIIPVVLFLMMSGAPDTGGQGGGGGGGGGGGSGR
Chain of UniProt Q12933 (Q12933 whole entry): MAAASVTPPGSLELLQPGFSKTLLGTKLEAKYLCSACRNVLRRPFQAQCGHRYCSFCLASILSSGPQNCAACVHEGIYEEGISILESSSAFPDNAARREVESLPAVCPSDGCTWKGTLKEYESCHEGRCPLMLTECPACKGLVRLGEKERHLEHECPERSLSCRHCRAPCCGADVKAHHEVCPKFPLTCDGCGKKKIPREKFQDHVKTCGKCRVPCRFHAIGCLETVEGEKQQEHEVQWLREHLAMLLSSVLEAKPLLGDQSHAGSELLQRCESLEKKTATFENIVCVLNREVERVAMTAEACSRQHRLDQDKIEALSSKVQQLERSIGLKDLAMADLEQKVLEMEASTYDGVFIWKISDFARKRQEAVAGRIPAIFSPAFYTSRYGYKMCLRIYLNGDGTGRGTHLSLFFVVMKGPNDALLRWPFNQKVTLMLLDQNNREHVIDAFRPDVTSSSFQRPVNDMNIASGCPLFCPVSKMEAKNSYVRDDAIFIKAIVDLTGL
Chain of UniProt P17028 (P17028 whole entry): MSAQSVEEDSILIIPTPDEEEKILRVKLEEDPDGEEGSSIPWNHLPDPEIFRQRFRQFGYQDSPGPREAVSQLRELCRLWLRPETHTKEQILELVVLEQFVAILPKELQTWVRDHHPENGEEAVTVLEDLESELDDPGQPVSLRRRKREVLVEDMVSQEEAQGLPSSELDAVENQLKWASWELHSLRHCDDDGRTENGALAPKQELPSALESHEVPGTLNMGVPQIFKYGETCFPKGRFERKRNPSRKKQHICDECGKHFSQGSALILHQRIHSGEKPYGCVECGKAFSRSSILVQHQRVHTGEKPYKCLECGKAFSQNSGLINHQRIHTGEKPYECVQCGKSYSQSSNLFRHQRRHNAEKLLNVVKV
Chain of UniProt Q9P287 (Q9P287 whole entry): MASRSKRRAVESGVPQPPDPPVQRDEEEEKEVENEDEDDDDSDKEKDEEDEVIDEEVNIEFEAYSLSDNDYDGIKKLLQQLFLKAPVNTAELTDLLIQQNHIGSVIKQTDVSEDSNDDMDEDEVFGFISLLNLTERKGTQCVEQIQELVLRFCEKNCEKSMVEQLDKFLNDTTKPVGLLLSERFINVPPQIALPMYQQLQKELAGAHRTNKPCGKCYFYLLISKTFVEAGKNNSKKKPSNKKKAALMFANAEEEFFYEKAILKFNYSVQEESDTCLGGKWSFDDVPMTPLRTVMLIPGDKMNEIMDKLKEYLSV

Target ARMT1 (UniProt Q9H993) has a thermal stability z-score (lipoamide; [1]) of 0.0878, a thermal stability z-score (lipoamide; arsenate co-treatment: none) of 0.255 and a thermal stability z-score (potassium arsenate) of 0.195.

CDC6 (UniProt Q99741) gave a thermal stability z-score (lipoamide; [1]) of -0.0605, a thermal stability z-score (lipoamide; arsenate co-treatment: none) of 0.0639 and a thermal stability z-score (potassium arsenate) of -0.258.

Work on NDUFA10 (UniProt O95299) yielded a thermal stability z-score (lipoamide; [1]) of -0.327, a thermal stability z-score (lipoamide; arsenate co-treatment: none) of -0.199 and a thermal stability z-score (potassium arsenate) of -0.167.

Work on RERE (UniProt Q9P2R6) yielded a thermal stability z-score (lipoamide; [1]) of 0.0956, a thermal stability z-score (lipoamide; arsenate co-treatment: none) of -0.103 and a thermal stability z-score (potassium arsenate) of 0.00489.

For PRDX2 (UniProt P32119), the thermal stability z-score (lipoamide; [1]) was 0.0679, the thermal stability z-score (lipoamide; arsenate co-treatment: none) was 0.162 and the thermal stability z-score (potassium arsenate) was -0.431.

In the case of AVL9 (UniProt Q8NBF6), the thermal stability z-score (lipoamide; [1]) is reported as 0.0764, the thermal stability z-score (lipoamide; arsenate co-treatment: none) is reported as 0.143 and the thermal stability z-score (potassium arsenate) is reported as 0.203.

KPNA2 (UniProt P52292) gave a thermal stability z-score (lipoamide; [1]) of 0.22, a thermal stability z-score (lipoamide; arsenate co-treatment: none) of -0.118 and a thermal stability z-score (potassium arsenate) of -0.353.

In the case of TRMT6 (UniProt Q9UJA5), the thermal stability z-score (lipoamide; [1]) is reported as 0.481, the thermal stability z-score (lipoamide; arsenate co-treatment: none) is reported as 0.683 and the thermal stability z-score (potassium arsenate) is reported as 0.0561.

FGD4 (UniProt Q96M96) gave a thermal stability z-score (lipoamide; [1]) of 0.0849, a thermal stability z-score (lipoamide; arsenate co-treatment: none) of -0.0145 and a thermal stability z-score (potassium arsenate) of -0.203.

CEP290 (UniProt O15078) gave a thermal stability z-score (lipoamide; [1]) of 0.613, a thermal stability z-score (lipoamide; arsenate co-treatment: none) of 0.238 and a thermal stability z-score (potassium arsenate) of 0.0798.

TRAF2 (UniProt Q12933) showed a thermal stability z-score (lipoamide; [1]) of -0.41, a thermal stability z-score (lipoamide; arsenate co-treatment: none) of -0.458 and a thermal stability z-score (potassium arsenate) of -4.2.

With CALD1 (UniProt Q05682) the thermal stability z-score (lipoamide; [1]) was 0.261, the thermal stability z-score (lipoamide; arsenate co-treatment: none) was 0.218 and the thermal stability z-score (potassium arsenate) was 0.103.

With WNT5A (UniProt P41221) the thermal stability z-score (lipoamide; [1]) was -0.888, the thermal stability z-score (lipoamide; arsenate co-treatment: none) was -0.379 and the thermal stability z-score (potassium arsenate) was 0.214.

Work on RNF149 (UniProt Q8NC42) yielded a thermal stability z-score (lipoamide; [1]) of -0.375, a thermal stability z-score (lipoamide; arsenate co-treatment: none) of -0.859 and a thermal stability z-score (potassium arsenate) of -0.556.

TIPIN (UniProt Q9BVW5) gave a thermal stability z-score (lipoamide; [1]) of -0.58, a thermal stability z-score (lipoamide; arsenate co-treatment: none) of 0.146 and a thermal stability z-score (potassium arsenate) of 0.349.

Work on FAM172A (UniProt Q8WUF8) yielded a thermal stability z-score (lipoamide; [1]) of 0.954, a thermal stability z-score (lipoamide; arsenate co-treatment: none) of 0.472 and a thermal stability z-score (potassium arsenate) of 0.275.

In the case of CYP20A1 (UniProt Q6UW02), the thermal stability z-score (lipoamide; [1]) is reported as 0.107, the thermal stability z-score (lipoamide; arsenate co-treatment: none) is reported as 0.633 and the thermal stability z-score (potassium arsenate) is reported as 0.0905.

With RAD54L2 (UniProt Q9Y4B4) the thermal stability z-score (lipoamide; [1]) was -0.0715, the thermal stability z-score (lipoamide; arsenate co-treatment: none) was 0.0462 and the thermal stability z-score (potassium arsenate) was -0.235.

In the case of KIF1BP (UniProt Q96EK5), the thermal stability z-score (lipoamide; [1]) is reported as 0.371, the thermal stability z-score (lipoamide; arsenate co-treatment: none) is reported as -0.0427 and the thermal stability z-score (potassium arsenate) is reported as 0.587.

Target PDCD11 (UniProt Q14690) has a thermal stability z-score (lipoamide; [1]) of -0.0446, a thermal stability z-score (lipoamide; arsenate co-treatment: none) of -0.334 and a thermal stability z-score (potassium arsenate) of -0.125.

With KIAA1468 (UniProt Q9P260) the thermal stability z-score (lipoamide; [1]) was 0.284, the thermal stability z-score (lipoamide; arsenate co-treatment: none) was 0.0862 and the thermal stability z-score (potassium arsenate) was -0.0466.

C1ORF122 (UniProt Q6ZSJ8) was tested, and the thermal stability z-score (lipoamide; [1]) was 1.07, the thermal stability z-score (lipoamide; arsenate co-treatment: none) was 1.18 and the thermal stability z-score (potassium arsenate) was 0.28.

Work on FGFR1OP2 (UniProt Q9NVK5) yielded a thermal stability z-score (lipoamide; [1]) of -0.0532, a thermal stability z-score (lipoamide; arsenate co-treatment: none) of 0.0859 and a thermal stability z-score (potassium arsenate) of 0.0446.

Work on LGALS3BP (UniProt Q08380) yielded a thermal stability z-score (lipoamide; [1]) of -2.58, a thermal stability z-score (lipoamide; arsenate co-treatment: none) of -2.13 and a thermal stability z-score (potassium arsenate) of 0.946.

Work on BCCIP (UniProt Q9P287) yielded a thermal stability z-score (lipoamide; [1]) of 0.431, a thermal stability z-score (lipoamide; arsenate co-treatment: none) of -0.061 and a thermal stability z-score (potassium arsenate) of -0.181.

With PON2 (UniProt Q15165) the thermal stability z-score (lipoamide; [1]) was -4.17, the thermal stability z-score (lipoamide; arsenate co-treatment: none) was -3.42 and the thermal stability z-score (potassium arsenate) was 0.478.

In the case of SH3GL2 (UniProt Q99962), the thermal stability z-score (lipoamide; [1]) is reported as 0.272, the thermal stability z-score (lipoamide; arsenate co-treatment: none) is reported as 0.622 and the thermal stability z-score (potassium arsenate) is reported as 0.00309.

Work on EFTUD2 (UniProt Q15029) yielded a thermal stability z-score (lipoamide; [1]) of 0.0587, a thermal stability z-score (lipoamide; arsenate co-treatment: none) of -0.0524 and a thermal stability z-score (potassium arsenate) of -0.28.

XPNPEP3 (UniProt Q9NQH7) was tested, and the thermal stability z-score (lipoamide; [1]) was -0.37, the thermal stability z-score (lipoamide; arsenate co-treatment: none) was 0.018 and the thermal stability z-score (potassium arsenate) was -0.646.

FMNL1 (UniProt O95466) showed a thermal stability z-score (lipoamide; [1]) of -0.412, a thermal stability z-score (lipoamide; arsenate co-treatment: none) of -0.507 and a thermal stability z-score (potassium arsenate) of -0.153.

UBLCP1 (UniProt Q8WVY7) showed a thermal stability z-score (lipoamide; [1]) of 0.309, a thermal stability z-score (lipoamide; arsenate co-treatment: none) of -0.101 and a thermal stability z-score (potassium arsenate) of 0.8.

In the case of GTF2F1 (UniProt P35269), the thermal stability z-score (lipoamide; [1]) is reported as -0.208, the thermal stability z-score (lipoamide; arsenate co-treatment: none) is reported as -0.0526 and the thermal stability z-score (potassium arsenate) is reported as -0.307.

With DDHD1 (UniProt Q8NEL9) the thermal stability z-score (lipoamide; [1]) was -0.143, the thermal stability z-score (lipoamide; arsenate co-treatment: none) was -0.142 and the thermal stability z-score (potassium arsenate) was 0.0595.

With NDUFAF6 (UniProt Q330K2) the thermal stability z-score (lipoamide; [1]) was 0.234, the thermal stability z-score (lipoamide; arsenate co-treatment: none) was 0.0618 and the thermal stability z-score (potassium arsenate) was 0.0349.

TTC27 (UniProt Q6P3X3) gave a thermal stability z-score (lipoamide; [1]) of -0.686, a thermal stability z-score (lipoamide; arsenate co-treatment: none) of -0.257 and a thermal stability z-score (potassium arsenate) of 0.24.

ICOSLG (UniProt O75144) was tested, and the thermal stability z-score (lipoamide; [1]) was -0.136, the thermal stability z-score (lipoamide; arsenate co-treatment: none) was -0.0493 and the thermal stability z-score (potassium arsenate) was -0.984.

In the case of DYNLL2 (UniProt Q96FJ2), the thermal stability z-score (lipoamide; [1]) is reported as 0.256, the thermal stability z-score (lipoamide; arsenate co-treatment: none) is reported as 0.641 and the thermal stability z-score (potassium arsenate) is reported as 0.118.

With MTX3 (UniProt Q5HYI7) the thermal stability z-score (lipoamide; [1]) was 0.929, the thermal stability z-score (lipoamide; arsenate co-treatment: none) was 0.179 and the thermal stability z-score (potassium arsenate) was -0.0757.

Target TOM1L1 (UniProt O75674) has a thermal stability z-score (lipoamide; [1]) of -1, a thermal stability z-score (lipoamide; arsenate co-treatment: none) of -0.807 and a thermal stability z-score (potassium arsenate) of -0.623.

TH1L|NELFCD showed a thermal stability z-score (lipoamide; [1]) of -0.0628, a thermal stability z-score (lipoamide; arsenate co-treatment: none) of -0.0836 and a thermal stability z-score (potassium arsenate) of 0.0938.

YIPF4 (UniProt Q9BSR8) was tested, and the thermal stability z-score (lipoamide; [1]) was 0.0431, the thermal stability z-score (lipoamide; arsenate co-treatment: none) was -0.44 and the thermal stability z-score (potassium arsenate) was -0.689.

EMC10 (UniProt Q5UCC4) was tested, and the thermal stability z-score (lipoamide; [1]) was -0.0818, the thermal stability z-score (lipoamide; arsenate co-treatment: none) was -0.577 and the thermal stability z-score (potassium arsenate) was 0.0739.

Target ZNF24 (UniProt P17028) has a thermal stability z-score (lipoamide; [1]) of 0.0764, a thermal stability z-score (lipoamide; arsenate co-treatment: none) of -0.217 and a thermal stability z-score (potassium arsenate) of -0.114.

CASP2 (UniProt P42575) gave a thermal stability z-score (lipoamide; [1]) of -0.172, a thermal stability z-score (lipoamide; arsenate co-treatment: none) of 0.304 and a thermal stability z-score (potassium arsenate) of -1.

In the case of ZBTB10 (UniProt Q96DT7), the thermal stability z-score (lipoamide; [1]) is reported as 0.00974, the thermal stability z-score (lipoamide; arsenate co-treatment: none) is reported as -0.093 and the thermal stability z-score (potassium arsenate) is reported as -0.307.

STAG1 (UniProt Q8WVM7) was tested, and the thermal stability z-score (lipoamide; [1]) was 0.115, the thermal stability z-score (lipoamide; arsenate co-treatment: none) was -0.148 and the thermal stability z-score (potassium arsenate) was -0.00763.

With DCTD (UniProt P32321) the thermal stability z-score (lipoamide; [1]) was 0.038, the thermal stability z-score (lipoamide; arsenate co-treatment: none) was -0.504 and the thermal stability z-score (potassium arsenate) was -0.736.

Work on S100P (UniProt P25815) yielded a thermal stability z-score (lipoamide; [1]) of 0.367, a thermal stability z-score (lipoamide; arsenate co-treatment: none) of -0.088 and a thermal stability z-score (potassium arsenate) of 0.0845.

ZNRF2 (UniProt Q8NHG8) showed a thermal stability z-score (lipoamide; [1]) of -0.729, a thermal stability z-score (lipoamide; arsenate co-treatment: none) of -0.885 and a thermal stability z-score (potassium arsenate) of -2.6.

Work on GPAT4 (UniProt Q86UL3) yielded a thermal stability z-score (lipoamide; [1]) of -0.413, a thermal stability z-score (lipoamide; arsenate co-treatment: none) of 0.478 and a thermal stability z-score (potassium arsenate) of -0.231.

With NAV2 (UniProt Q8IVL1) the thermal stability z-score (lipoamide; [1]) was 0.0134, the thermal stability z-score (lipoamide; arsenate co-treatment: none) was -0.0355 and the thermal stability z-score (potassium arsenate) was -0.055.

In the case of YBX1 (UniProt P67809), the thermal stability z-score (lipoamide; [1]) is reported as -0.0518, the thermal stability z-score (lipoamide; arsenate co-treatment: none) is reported as -0.23 and the thermal stability z-score (potassium arsenate) is reported as -0.894.

RPL34 (UniProt P49207) showed a thermal stability z-score (lipoamide; [1]) of 0.331, a thermal stability z-score (lipoamide; arsenate co-treatment: none) of 0.134 and a thermal stability z-score (potassium arsenate) of -1.17.

POM121C (UniProt A8CG34) gave a thermal stability z-score (lipoamide; [1]) of 1.24, a thermal stability z-score (lipoamide; arsenate co-treatment: none) of -0.678 and a thermal stability z-score (potassium arsenate) of 1.38.

PGM2L1 (UniProt Q6PCE3) gave a thermal stability z-score (lipoamide; [1]) of 0.405, a thermal stability z-score (lipoamide; arsenate co-treatment: none) of 0.129 and a thermal stability z-score (potassium arsenate) of 0.314.

Reference: the supplement of paper PMC12463676, “Small-molecule dissolution of stress granules by redox modulation benefits ALS models” (Nature Chemical Biology, 2025)
